Measurements reported in ChEMBL document CHEMBL1126367, “The discovery of a novel calcium channel blocker related to the structure of potassium channel opener cromakalim” (Bioorg Med Chem Lett, 1992).

Key:
Cavia porcellus [1] = species: Cavia porcellus; assay: Percent inhibition of inward calcium current by 10 uM of the compound; type: functional; parameters: scale not given: the % may be the effect or the level left
Rattus norvegicus [2] = species: Rattus norvegicus; assay: Vasorelaxant potency by relaxation of the methoxamine contracted rat aorta; type: functional
Rattus norvegicus [3] = assay: Compound was evaluated for the antihypertensive activity at a dose of 45 umol/kg given orally; No significant effect on blood pressure.; type: functional, organism-based
Cavia porcellus [4] = species: Cavia porcellus; assay: Percent inhibition of inward calcium current by 50 uM of the compound; type: functional; parameters: scale not given: the % may be the effect or the level left
Cavia porcellus [5] = species: Cavia porcellus; assay: Percent inhibition of inward calcium current by 100 uM of the compound; type: functional; parameters: scale not given: the % may be the effect or the level left
Rattus norvegicus [6] = assay: The compound was evaluated for the antihypertensive activity at a dose of 45 umol/kg given orally; type: functional
Rattus norvegicus [7] = assay: Compound was evaluated for the antihypertensive activity at a dose of 45 umol/kg given orally; No significant effect on blood pressure; type: functional, organism-based
Rattus norvegicus [8] = assay: The compound was evaluated for the antihypertensive activity at a dose of 45 umol/kg given orally.; type: functional

CC1(C)Oc2c(c(=O)n(Cc3ccccc3)c3ccccc23)[C@@H](N2CCCC2=O)[C@@H]1O
Activity (Cavia porcellus [1]): 30%
IC50 (Rattus norvegicus [2]): 440 nM
IC50 (Rattus norvegicus [3]): Not Active
Activity (Cavia porcellus [4]): 46%
Activity (Cavia porcellus [5]): 55%

CC1(C)Oc2ccc(C#N)cc2[C@@H](N2CCCC2=O)[C@@H]1O [CROMAKALIM]
Activity (Rattus norvegicus [6]): 63%

COc1ccc([C@@H]2Sc3ccccc3N(CCN(C)C)C(=O)[C@@H]2OC(C)=O)cc1 [DILTIAZEM]
IC50 (Rattus norvegicus [2]): 2380 nM
IC50 (Rattus norvegicus [7]): Not Active

COC(=O)C1=C(C)NC(C)=C(C(=O)OC)C1c1ccccc1[N+](=O)[O-] [NIFEDIPINE]
IC50 (Rattus norvegicus [2]): 4 nM
Activity (Rattus norvegicus [8]): 33%
